Measurements published in PubChem BioAssay (NCI).
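All cell lines were grown in 96-well plates and treated with compound for 48 hours. GI50 marks 50% less growth. TGI marks complete inhibition of growth.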

How the values were obtained:
Assay in all cases: NCI-60 cell line screen, 48 h
DLD-1 colon = test system: DLD-1 colon
DMS 114 small cell lung = test system: DMS 114 small cell lung
HOP-18 NSCLC = test system: HOP-18 NSCLC
LXFL 529 NSCLC = test system: LXFL 529 NSCLC
M19-MEL melanoma = test system: M19-MEL melanoma
SNB-78 CNS = test system: SNB-78 CNS
MCF7 breast = test system: MCF7 breast
MDA-MB-231 breast = test system: MDA-MB-231 breast
NCI/ADR-RES ovarian = test system: NCI/ADR-RES ovarian
T-47D breast = test system: T-47D breast

Structure (SMILES)	TGI (DLD-1 colon)	TGI (DMS 114 small cell lung)	TGI (HOP-18 NSCLC)	TGI (LXFL 529 NSCLC)	TGI (M19-MEL melanoma)	TGI (SNB-78 CNS)	other results
COC[C@@H](N=CN1CCc2cc(OC)c(OC)cc2[C@@H]1C)C(C)(C)C	> 100 µM	> 100 µM	> 100 µM	> 100 µM	> 100 µM		
NC1CCCCC1.[O]=[Ge].[O]=[Ge].[O]=[Ge][OH].[O]=[Ge][OH]	> 100 µM	> 100 µM	> 100 µM	> 100 µM	> 100 µM	> 100 µM	GI50 (LXFL 529 NSCLC): > 100 µM
O=C(c1ccccc1)C1CCCCN1C(=O)c1ccccc1 (centres undefined)	> 100 µM	> 100 µM	> 100 µM	> 100 µM	> 100 µM	> 100 µM	
CCOC(=O)/C(O)=C/c1cc(OC)cc(=O)o1	> 100 µM	> 100 µM	> 100 µM	> 100 µM	> 100 µM	> 100 µM	
Oc1cc(O)c(Oc2cccc(O)c2O)c(O)c1		> 100 µM	> 100 µM	> 100 µM	45.9 µM	> 100 µM	
CCOC(=O)C1(Br)C(c2ccccc2)NC(=O)NC1(C)Br (centres undefined)	> 100 µM	> 100 µM	> 100 µM	> 100 µM	> 100 µM	> 100 µM	GI50 (MCF7 breast): 28.1 µM; TGI (MCF7 breast): > 100 µM; GI50 (MDA-MB-231 breast): 27.8 µM; TGI (MDA-MB-231 breast): > 100 µM; GI50 (NCI/ADR-RES ovarian): 28.1 µM; TGI (NCI/ADR-RES ovarian): 89.8 µM; GI50 (T-47D breast): 47.3 µM; TGI (T-47D breast): > 100 µM
C1C[OH+]CC[OH+]CCNCC[OH+]CC[OH+]CCN1.[Cl-].[Pt+4]	> 100 µM		> 100 µM	> 100 µM			GI50 (DLD-1 colon): > 100 µM; GI50 (HOP-18 NSCLC): > 100 µM; GI50 (LXFL 529 NSCLC): 63.7 µM
O=C(O)C1C2CCC(O2)C1C(=O)N1CCCCC1 (centres undefined)	39.7 µM	5.06 µM	36.5 µM	16.9 µM	21.9 µM	38.3 µM	
CC1CCP(=O)(c2ccccc2)c2ccccc21 (centres undefined)	> 100 µM	> 100 µM	> 100 µM	> 100 µM	58.5 µM	> 100 µM	
CC(=O)NNc1nc(C)c(C(=O)NNC(=O)C(=O)Nc2c(C)cccc2C)s1	> 100 µM		> 100 µM	> 100 µM	79.7 µM	> 100 µM	
COc1ccccc1/C=C1\CCC(CCN(C)C)(C2=CCCC2)C1=O (centres undefined)	38.5 µM	34.2 µM	85.3 µM	29.6 µM	31.7 µM	65.9 µM	
CC1OC(OCC2OC(Oc3c(-c4ccc(O)cc4)oc4cc(O)cc(O)c4c3=O)C(OC3OC(C)C(O)C(O)C3O)C(O)C2O)C(O)C(O)C1O (centres undefined)	> 100 µM	> 77.4 µM	> 100 µM	> 100 µM	> 100 µM	> 100 µM	
O=c1[nH]c(=O)n([C@@H]2C[C@H](CO)[C@H](O)C2)cc1/C=C/Br	> 100 µM	> 100 µM	> 100 µM	> 100 µM	> 100 µM	> 100 µM	
Clc1ccc(Cc2nc3ccccc3s2)c(Cl)c1	29 µM	36.5 µM	31.4 µM	31.1 µM	30.5 µM		
C=C(CCCCCCCCC)CC(=O)SCCNC(=O)CCNC(=O)C(O)C(C)(C)COP(=O)(O)OP(=O)(O)OCC1OC(n2cnc3c(N)ncnc32)C(O)C1OP(=O)(O)O (centres undefined)	> 100 µM	> 100 µM	> 100 µM	> 100 µM	87.8 µM	65 µM	TGI (MCF7 breast): > 100 µM; TGI (MDA-MB-231 breast): > 100 µM; TGI (NCI/ADR-RES ovarian): > 100 µM; TGI (T-47D breast): > 100 µM
C=CC1[C@H]2COC(C)(C)O[C@@H]2CC(=O)C1(C)C (some centres undefined)	> 100 µM	> 100 µM	> 100 µM	> 100 µM	> 100 µM	> 100 µM	
O=C(Nc1cccs1)c1c(O)[nH]c(=S)[nH]c1=O	> 100 µM	> 100 µM	> 100 µM				
CCCCC1CC(c2cccc([N+](=O)[O-])c2)=NO1 (centres undefined)	> 100 µM	> 100 µM	> 100 µM	> 100 µM	> 100 µM	> 100 µM	
O=C(/C=C/c1ccccc1)CC1OC(=O)c2ccccc21 (centres undefined)	> 100 µM	> 100 µM	78.4 µM	> 100 µM	> 100 µM		
CC1CC#CCOC(=O)CCCC1=O (centres undefined)	> 100 µM	> 100 µM	> 100 µM	> 100 µM	> 100 µM	> 100 µM	
CC1CC2CC(=O)CC3(C1)C2CCCN3CCCO (centres undefined)	> 100 µM	> 100 µM	> 100 µM	> 100 µM	> 100 µM	> 100 µM	
Cc1ccc(-c2cc(-c3ccco3)c(C#N)c(=O)[nH]2)cc1	> 100 µM		> 100 µM	> 100 µM	> 100 µM	> 100 µM	
CN(C)c1ccc([O-])cc1.CN(C)c1ccc([O-])cc1.CN(C)c1ccc([O-])cc1.CN(C)c1ccc([O-])cc1.[Ti+4]	> 100 µM	> 100 µM	> 100 µM	> 100 µM	> 100 µM	> 100 µM	GI50 (DLD-1 colon): 91 µM; GI50 (DMS 114 small cell lung): 50.7 µM; GI50 (HOP-18 NSCLC): > 100 µM; GI50 (LXFL 529 NSCLC): 25.9 µM; GI50 (M19-MEL melanoma): > 100 µM; GI50 (SNB-78 CNS): > 100 µM
COC(=O)C1C(O)CC(c2ccccn2)N(Cc2ccccc2)C1c1ccccn1 (centres undefined)	> 100 µM	> 100 µM	> 100 µM	> 100 µM	> 100 µM	> 100 µM	
CC(=O)N[C@@H]1C(O)CN2C(=O)C(=O)O[C@H](C(O)CO)[C@@H]12 (some centres undefined)	> 100 µM	> 100 µM	> 100 µM	> 100 µM	> 100 µM	> 100 µM	
Nc1nc2c(c(=O)[nH]1)NC(CO)CN2 (centres undefined)	> 100 µM	> 100 µM	> 100 µM		> 100 µM		
